Literature values, collected in patent publication US20250231185A1, “Coronavirus T Cell Epitopes, Megapools and Uses Thereof” (La Jolla Institute for Immunology, priority 2021, published 2025).

Tested on: CD8+ T cells
Settings: CD8R (D) megapool epitopes; dominant = recognized by 3 or more donors/different studies; cited from earlier work

| Substance | Dominant |
| --- | --- |
| 1741 (VLWAHGFEL) [compound 1741] | Yes (more dominant epitopes are defined by being recognized by 3 or more donors/different studies) |
| 1684 (FPRGQGVPI) [compound 1684] | Yes (more dominant epitopes are defined by being recognized by 3 or more donors/different studies) |
| 1728 (LYLQYIRKL) [compound 1728] | Yes (more dominant epitopes are defined by being recognized by 3 or more donors/different studies) |
| 1705 (MEVTPSGTWL) [compound 1705] | Yes (more dominant epitopes are defined by being recognized by 3 or more donors/different studies) |
| 1744 (IEYPIIGDEL) [compound 1744] | Yes (more dominant epitopes are defined by being recognized by 3 or more donors/different studies) |
| 1811 (QLRARSVSPK) [compound 1811] | Yes (more dominant epitopes are defined by being recognized by 3 or more donors/different studies) |
| 1716 (LLMPILTLT) [compound 1716] | Yes (more dominant epitopes are defined by being recognized by 3 or more donors/different studies) |

Same assay, conditions: CD8RE megapool peptides (non-spike SARS-CoV-2 antigens); dominant epitope Yes/No; cited from earlier work

| Substance | Dominant |
| --- | --- |
| 3035 (MDLFMRIFTI) [compound 3035] | Yes (more dominant epitopes are defined by being recognized by 3 or more donors/different studies) |
| 2940 (MEVTPSGTWL) [compound 2940] | Yes (more dominant epitopes are defined by being recognized by 3 or more donors/different studies) |
| 2957 (RLYYDSMSY) [compound 2957] | Yes (more dominant epitopes are defined by being recognized by 3 or more donors/different studies) |
| 2989 (GVAMPNLYK) [compound 2989] | Yes (more dominant epitopes are defined by being recognized by 3 or more donors/different studies) |
| 2903 (GTITVEELK) [compound 2903] | Yes (more dominant epitopes are defined by being recognized by 3 or more donors/different studies) |
| 2946 (VLSEARQHL) [compound 2946] | Yes (more dominant epitopes are defined by being recognized by 3 or more donors/different studies) |
| 3026 (NTCDGTTFTY) [compound 3026] | Yes (more dominant epitopes are defined by being recognized by 3 or more donors/different studies) |

Same assay, conditions: SARS-CoV-2-derived CD8 epitopes; dominant = recognized by 3 or more donors/different studies; cited from earlier work

| Substance | Dominant |
| --- | --- |
| 521 (QQQQGQTVTK) [compound 521] | Yes (more dominant epitopes are defined by being recognized by 3 or more donors/different studies) |
| 555 (LPAADLDDF) [compound 555] | Yes (more dominant epitopes are defined by being recognized by 3 or more donors/different studies) |

Same assay, conditions: SARS-CoV-2 Ag S; T cell type recognizing the epitope; cited from earlier work

| Substance | Restriction |
| --- | --- |
| 1368 (GSFCTQLNR) [compound 1368] | CD8 |
| 1343 (AEHVNNSY) [compound 1343] | CD8 |
| 1465 (FDEDDSEPVL) [compound 1465] | CD8 |
| 1382 (ADAGFIKQY) [compound 1382] | CD8 |
| 1393 (QIPFAMQMAY) [compound 1393] | CD8 |

Same assay, conditions: T cell subset (CD4 or CD8) recognizing the SARS-CoV-2-derived epitope; cited from earlier work

| Substance | Restriction |
| --- | --- |
| 526 (RRGPEQTQGNF) [compound 526] | CD8 |
| 521 (QQQQGQTVTK) [compound 521] | CD8 |
| 688 (TEIDPKLDNYY) [compound 688] | CD8 |
| 555 (LPAADLDDF) [compound 555] | CD8 |
| 641 (TISLAGSYK) [compound 641] | CD8 |
| 638 (VVDYGARFY) [compound 638] | CD8 |
| 664 (YMSALNHTK) [compound 664] | CD8 |
| 640 (VSSPDAVTAY) [compound 640] | CD8 |
| 595 (FEPSTQYEY) [compound 595] | CD8 |
| 695 (KFADDLNQL) [compound 695] | CD8 |
| 598 (LEFGATSAAL) [compound 598] | CD8 |

Same assay, conditions: T cell type (CD4 or CD8) recognizing the SARS-CoV-2 epitope; cited from earlier work

| Substance | Restriction |
| --- | --- |
| 955 (QTVKPGNFNK) [compound 955] | CD8 |
| 948 (TSFGPLVRK) [compound 948] | CD8 |
| 1059 (YKIEELFYSY) [compound 1059] | CD8 |
| 1010 (QEYADVFHLY) [compound 1010] | CD8 |
| 1092 (CATVHTANKW) [compound 1092] | CD8 |
